Experimental data taken from ChEMBL document CHEMBL1148609, “Orally active purine-based inhibitors of the heat shock protein 90” (J Med Chem, 2006).

Molecular target: Heat shock protein HSP 90-alpha (Homo sapiens) (UniProt P07900)
Experiment: Hsp90 inhibition measured as HER-2 degradation in MCF-7 cells

SMILES	IC50 [nM]
COc1ccc(I)c(Sc2nc3c(N)ncnc3n2CCCNC(C)(C)C)c1	140
CCC(CC)NCCCn1c(Sc2cc(OC)ccc2I)nc2c(N)ncnc21	210
CCCCn1c(Sc2cc(OC)ccc2OC)nc2c(N)ncnc21	3500
CCC(C)NCCCn1c(Sc2cc(OC)ccc2I)nc2c(N)ncnc21 (stereo unspecified)	210
CCCCn1c(Cc2cc(OC)ccc2I)nc2c(N)ncnc21	5000
COc1ccc(I)c(Sc2nc3c(N)ncnc3n2CCCNC(C)C)c1	180
CCCCn1c(Cc2cc(OC)ccc2Cl)nc2c(N)ncnc21	20000
COc1ccc(I)c(Sc2nc3c(N)ncnc3n2CCC=C(C)C)c1	370
CCCCn1c(Cc2cc(OC)ccc2OC)nc2c(N)ncnc21	12000
CCCCn1c(Cc2cc(OC)ccc2Br)nc2c(N)ncnc21	8000
C#CCCCn1c(Sc2cc(OC)ccc2I)nc2c(N)nc(F)nc21	360
